From US20240067613A1, “NOVEL QUINAZOLINE DERIVATIVES AS SOS1 INHIBITORS AND USE THEREOF” (HANMI PHARMACEUTICAL CO., LTD., priority 2020, published 2024)

Molecular target: T1, SOS1 binding to KRAS G12C (Homo sapiens, UniProt Q07889)
T1 construct: consisting of amino acid residues 564 to 1049 which are the catalytic domain; purchased Reaction Biology Corporation MSC-11-502 (SOS1-Strep); MSC-11-538 (KRAS G12C)
T1 sequence (Q07889 564-1049): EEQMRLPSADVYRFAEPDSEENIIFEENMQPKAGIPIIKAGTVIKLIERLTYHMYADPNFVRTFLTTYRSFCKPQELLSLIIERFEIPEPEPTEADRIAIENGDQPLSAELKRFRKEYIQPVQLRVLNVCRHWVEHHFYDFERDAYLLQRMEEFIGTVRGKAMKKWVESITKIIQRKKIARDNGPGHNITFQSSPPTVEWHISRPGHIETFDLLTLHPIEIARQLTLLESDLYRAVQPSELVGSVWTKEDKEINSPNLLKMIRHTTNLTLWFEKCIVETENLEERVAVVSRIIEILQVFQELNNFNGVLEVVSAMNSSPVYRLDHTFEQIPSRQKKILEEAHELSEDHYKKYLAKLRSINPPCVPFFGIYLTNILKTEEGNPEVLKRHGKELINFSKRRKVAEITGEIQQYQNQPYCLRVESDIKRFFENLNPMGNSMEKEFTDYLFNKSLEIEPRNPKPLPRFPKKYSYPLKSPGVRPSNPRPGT
Assay: SOS1 GTP substitution inhibition test (HTRF/TR-FRET, KRAS G12C-SOS1 binding inhibitory ability)
Type: biochemical
Conditions: HTRF, GST-KRAS G12C (2-169), SOS1-Strep (564-1049), 1.6, 8, 40, 200, 1,000 nM
Description: In order to determine whether the substitution function of SOS1 binding to KRAS G12C is inhibited by the above-described example compounds, a homogeneous time-resolved fluorescence (HTRF) test was performed using G12C(#MSC-11-538) and SOS1-Strep(#MSC-11-502) purchased from Reaction Biology Corporation (MA, USA). The activity of SOS1 enzyme was determined by measuring the amount of GTP bound to KRAS G12C proteins, using the principle of time-resolved fluorescence energy transfer (TR-FRET). Based on the principle that terbium bound to the GST-binding antibody of the GST-KRAS G12C protein acts as a donor of fluorescence resonance energy transfer (FRET), and the GTP bound to the KRAS G12C protein is labeled with the fluorescent agent DY-647P1 and acts as a receiver, when the more GTP is bound to the KRAS G12C protein by the substitution reaction of SOS1 according to this test, the higher HTRF or FRET signal is measured. To summarize, glutathione S-transferase (GST)-tagged KRAS G12C proteins (consisting of amino acid residues 2 to 169) required for the reaction, streptavidin-tagged SOS1 proteins (consisting of amino acid residues 564 to 1049 which are the catalytic domain), anti-GST antibody (#61[…]) purchased from CISBIO corporation, nucleic acid (#NU-820-647P1) purchased from Jena Bioscience GmbH were mixed in a buffer solution formed from 10 mM HEPES pH7.4, 150 mM NaCl, 5 mM MgCl2, and 1 mM dithiothreitol (DTT), and the mixture was added to a 384-well plate and reacted at room temperature. Next, FRET signals were measured with a Perkin Elmer Envision microplate reader. In this case, an excitation signal (excitation) was measured at 320 nm, and an emission signal (emission) was measured at 615/665 nm. The fluorescence measurement value when the SOS1 protein was not included was calculated as a background signal value, and the background signal value was subtracted from all of the measured HTRF values. The fluorescence measurement value when the synthesized compound was not included was measured as a control value, and this value was selected as a reference point of 100%. For each of the example compounds, fluorescence was measured at concentrations of 1.6, 8, 40, 200, and 1,000 nM (5 points, 5-fold), and the 50% activity inhibition value (IC50) of each of the compounds was calculated using GraphPad Prism. When the IC50 value was 50 nM or less, the inhibitory ability was denoted as +++. When the IC50 value was more than 50 nM and 100 nM or less, the inhibitory ability was denoted as ++. When the IC50 value was more than 100 nM, the inhibitory ability was denoted as +.

| IC50 | Compound |
| --- | --- |
| > 100 nM | COc1cc2c(N[C@H](C)c3cc(N)cc(C(F)(F)F)c3)nc(C)nc2cc1C(=O)N1CCC1 [Example 7, (R)-(4-((1-(3-amino-5-(trifluoromethyl)phenyl)ethyl)amino)-6-methoxy-2-methylquinazoline-7-yl)(azetidine-1-yl)methanone] |
| ≤ 50 nM | CNc1cc2c(N[C@H](C)c3cc(N)cc(C(F)(F)F)c3F)nc(C)nc2cc1C(=O)N1CCOCC1 [Example 50, (R)-(4-((1-(5-amino-2-fluoro-3-(trifluoromethyl)phenyl)ethyl)amino)-2-methyl-6-(methylamino)quinazoline-7-yl)(morpholino)methanone] |
| ≤ 50 nM | CNc1cc2c(N[C@H](C)c3cc(N)cc(C(F)(F)F)c3)nc(C)nc2cc1C(=O)N1CCSCC1 [Example 60, (R)-(4-((1-(3-amino-5-(trifluoromethyl)phenyl)ethyl)amino)-2-methyl-6-(methylamino)quinazolin-7-yl)(thiomorpholino)methanone] |
| > 100 nM | COc1cc2c(NC(C)c3cc(-c4ccccc4CO)cs3)nc(C)nc2cc1C(=O)N1CCOCC1 (stereo not drawn) [Example 14] |
| 50 to 100 nM | COc1cc2c(N[C@H](C)c3cc(N)cc(C(F)(F)F)c3)nc(C)nc2cc1C(=O)N1CCSCC1 [Example 4, (R)-(4-((1-(3-amino-5-(trifluoromethyl)phenyl)ethyl)amino)-6-methoxy-2-methylquinazoline-7-yl)(thiomorpholino)methanone] |
| > 100 nM | Cc1nc(N[C@H](C)c2cc(N)cc(C(F)(F)F)c2)c2cc(N3CCCC3)c(C(=O)N3CCOCC3)cc2n1 [Example 42, (R)-(4-((1-(3-amino-5-(trifluoromethyl)phenyl)ethyl)amino)-2-methyl-6-(pyrrolidin-1-yl)quinazoline-7-yl)(morpholino)methanone] |
| ≤ 50 nM | Cc1nc(N[C@H](C)c2cc(N)cc(C(F)F)c2F)c2cc(NC(C)C)c(C(=O)N3CCOCC3)cc2n1 [Example 55, (R)-4-((1-(5-amino-3-(difluoromethyl)-2-fluorophenyl)ethyl)amino)-6-(isopropylamino)-2-methylquinazoline-7-(yl)(morpholino)methanone] |
| ≤ 50 nM | COc1cc2c(N[C@H](C)c3cc(N)cc(C(F)(F)F)c3)nc(C)nc2cc1C(=O)N1CCNCC1 [Example 9, (R)-(4-((1-(3-amino-5-(trifluoromethyl)phenyl)ethyl)amino)-6-methoxy-2-methylquinazoline-7-yl)(piperazine-1-yl)methanone] |
| > 100 nM | COc1cc2c(N[C@H](C)c3cc(NC(=O)C(F)(F)F)cc(C(F)(F)F)c3)nc(C)nc2cc1C(=O)N1CCOCC1 [Example 10] |
| ≤ 50 nM | CNc1cc2c(N[C@H](C)c3cc(N)cc(C(F)F)c3F)nc(C)nc2cc1C(=O)N1CCS(=O)(=O)CC1 [Example 64, (R)-(4-((1-(5-amino-3-(difluoromethyl)-2-fluorophenyl)ethyl)amino)-2-methyl-6-(methylamino)quinazoline-7-yl)(1,1-dioxothiomorpholino)methanone] |
| ≤ 50 nM | CNc1cc2c(N[C@H](C)c3cc(N)cc(C(F)(F)F)c3)nc(C)nc2cc1C(=O)N1CC2COCC2C1 (stereo partly drawn) [Example 58, (4-(((R)-1-(3-amino-5-(trifluoromethyl)phenyl)ethyl)amino)-2-methyl-6-(methylamino)quinazoline-7-yl)(tetrahydro-1H-furo[3,4-c]pyrrol-5(3H)-yl)methanone] |
| 50 to 100 nM | CCNc1cc2c(N[C@H](C)c3cc(N)cc(C(F)(F)F)c3)nc(C)nc2cc1C(=O)N1CCOCC1 [Example 46, (R)-(4-((1-(3-amino-5-(trifluoromethyl)phenyl)ethyl)amino)-6-(ethylamino)-2-methylquinazoline-7-yl)(morpholino)methanone] |
| > 100 nM | COc1cc2c(NC(C)c3cc(-c4cccc5c4CNCC5)cs3)nc(C)nc2cc1C(=O)N1CCOCC1 (stereo not drawn) [Example 8, (6-methoxy-2-methyl-4-((1-(4-(1,2,3,4-tetrahydroisoquinolin-8-yl)thiophen-2-yl)ethyl)amino)quinazoline-7-yl)(morpholino)methanone] |
| ≤ 50 nM | COc1cc2c(N[C@H](C)c3cc(N)cc(F)c3)nc(C)nc2cc1C(=O)N1CCOCC1 [Example 17] |
| 50 to 100 nM | Cc1nc(N[C@H](C)c2cc(N)cc(C(F)(F)F)c2)c2cc(O[C@H]3CCOC3)c(C(=O)N3CCOCC3)cc2n1 [Example 27, (4-(((R)-1-(3-amino-5-(trifluoromethyl)phenyl)ethyl)amino)-2-methyl-6-(((S)-tetrahydrofuran-3-yl)oxy)quinazolin-7-yl)(morpholino)methanone] |
| 50 to 100 nM | Cc1nc(N[C@H](C)c2cc(N)cc(C(F)(F)F)c2)c2cc(NC(C)C)c(C(=O)N3CCOCC3)cc2n1 [Example 47, (R)-(4-((1-(3-amino-5-(trifluoromethyl)phenyl)ethyl)amino)-6-(isopropylamino)-2-methylquinazoline-7-yl)(morpholino)methanone] |
| ≤ 50 nM | COc1cc2c(N[C@H](C)c3cc(N)cc(C(F)(F)F)c3)nc(C)nc2cc1C(=O)N1CCS(=O)(=O)CC1 [Example 18, (R)-(4-((1-(3-amino-5-(trifluoromethyl)phenyl)ethyl)amino)-6-methoxy-2-methylquinazolin-7-yl)(1,1-dioxothiomorpholino)methanone] |
| 50 to 100 nM | CNc1cc2c(N[C@H](C)c3cc(N)cc(-c4ccoc4)c3)nc(C)nc2cc1C(=O)N1CCOCC1 [Example 54, (R)-(4-((1-(3-amino-5-(furan-3-yl)phenyl)ethyl)amino)-2-methyl-6-(methylamino)quinazolin-7-yl)(morpholino)methanone] |
| 50 to 100 nM | CNc1cc2c(N[C@H](C)c3cc(N)cc(C(F)(F)F)c3)nc(C)nc2cc1C(=O)N1CCN(C)CC1 [Example 57, (R)-(4-((1-(3-amino-5-(trifluoromethyl)phenyl)ethyl)amino)-2-methyl-6-(methylamino)quinazoline-7-yl)(4-methylpiperazin-1-yl)methanone] |
| ≤ 50 nM | COc1cc2c(N[C@H](C)c3cc(N)cc(C(F)(F)F)c3F)nc(C)nc2cc1C(=O)N1CCOCC1 [Example 25, (R)-(4-((1-(5-amino-2-fluoro-3-(trifluoromethyl)phenyl)ethyl)amino)-6-methoxy-2-methylquinazolin-7-yl)(morpholino)methanone] |
| ≤ 50 nM | COc1cc2c(N[C@H](C)c3cc(N)cc(C(F)F)c3F)nc(C)nc2cc1C(=O)N1CCOCC1 [Example 26, (R)-(4-((1-(5-amino-3-(difluoromethyl)-2-fluorophenyl)ethyl)amino)-6-methoxy 2-methylquinazolin-7-yl)(morpholino)methanone] |
| > 100 nM | COc1cc2c(N[C@H](C)c3cc(N)cc(C(F)(F)F)c3)nc(C)nc2cc1CN1CCOCC1 [Example 34, (R)-N-(1-(3-amino-5-(trifluoromethyl)phenyl)ethyl)-6-methoxy-2-methyl-7-(morpholinomethyl)quinazoline-4-amine] |
| > 100 nM | COc1cc2c(N[C@H](C)c3cc(N)cc(C(F)(F)F)c3)nc(C)nc2cc1OCC1COC1 [Example 39, (R)-N-(1-(3-amino-5-(trifluoromethyl)phenyl)ethyl)-6-methoxy-2-methyl-7-(oxetane-3-ylmethoxy)quinazoline-4-amine] |
| 50 to 100 nM | COc1cc2c(N[C@H](C)c3cc(C)cc(N)c3)nc(C)nc2cc1C(=O)N1CCOCC1 [Example 21, (R)-(4-((1-(3-amino-5-methylphenyl)ethyl)amino)-6-methoxy-2-methylquinazolin-7-yl)(morpholino)methanone] |
